These results are taken from article PMC10764104, “Discovery of Molecular Glue Degraders via Isogenic Morphological Profiling” (ACS Chemical Biology, 2023).

One data set addresses T1, GSPT2 (Homo sapiens, UniProt Q8IYD1+Q96SW2).
T1 construct: endogenous in cells; host or cells: RKO WT or RKO CRBN KO
In words: Western blot analysis of GSPT1 and GSPT2 degradation in RKO WT or CRBN KO cells. The class given is cell-based. Here is the method:
(A) Structure of FL2-14 comprising fluorosulfate scaffold FL2 (black) and tail group modification 14 (blue). (B) DMSO-normalized quantitative proteomics after 16 h of treatment with FL2-14 (10 μM) in RKO WT (n = 2). […] (C) Structural alignment of AlphaFold models of GSPT1 (AF-P15170-F1-model_v4 in gray) and GSPT2 (AF-Q8IYD1-F1-model_v4 in blue). (D) Validation of GSPT2 degradation by FL2-14. […] (E) Dose–response of FL2-14 in RKO and HEK293T cells. Cells were treated with the FL2-14 (0 to 10 μM) for 16 h. (F) Degradation of GSPT2^WT or GSPT2^G566N. […]
Analysis of targeted protein degradation of GSPT1 and GSPT2 via western blot For degradation assays 800 000 RKO WT or CRBN KO cells were seeded 1 day prior to the treatment in 6 well plates.
Then, cells were treated with 10 µM of the compounds for 16 hours if not otherwise stated. Cells were harvested, lysed for 30 min at 37°C in lysis buffer (1x PBS, 1% SDS, 2 mM MgCl2, 1x Halt Protease inhibitor cocktail, 50 Units Benzonase) and cleared for 30 min at 18 000 x g at 4°C. Protein concentration was determined with the Pierce 660 nm Protein Assay using the Ionic Detergent Compatibility Reagent (Thermo Scientific). 10 µg total proteome were subjected to western blot analysis by adding 4x Bolt™ LDS Sample Buffer (Thermo Scientific). Samples were boiled at 95°C for 5 min and subjected to gel electrophoresis with Bolt™ 4‐12% Bis‐Tris Plus Gels (Thermo Scientific) with Bolt™ MES SDS Running Buffer (Thermo Scientific). Membranes were blocked with 5% fat‐free milk in TBS‐T (20 mM Tris, 150 mM NaCl, 0.1% Tween, pH 7.6) for 1 h at room temperature and washed subsequently 3x 5 min with TBS‐
T. Afterwards, they were incubated for 1 h at room temperature with either GSPT1 antibody (Abcam ab49878, rabbit, […]
rabbit, 1:10 000), CRBN (Cell Signaling Technologies, CST71810S, rabbit, 1:1000), or GAPDH (SantaCruz sc‐47724, mouse, 1:1 000). Followed by washing 3x 5 min with TBS‐T and incubation for 1 h at room temperature with either Goat ANTI‐RABBIT IgG StarBright™ Blue 700 (Bio‐Rad, #12004162, 1:10 000) or Goat anti‐Mouse IgG (H+L) Cross‐ Adsorbed Secondary Antibody, DyLight™ 800 (Bio‐Rad, STAR117D800GA, 1:10 000) fluorophore‐conjugated

Data set [1] is described as follows: CellTiter-Glo cytotoxicity of selected compounds (manual, 72 h). It counts as cell-based, human. The settings on record: human, up to 10 μM. Here is the method:
Assessment of gene expression and essentiality in RKO WT
Fluorescence Polarization‐based competition assay
EC50 values were calculated with GraphPad Prism […]
the FP value of free tracer. […]
instructions. […] For the screening of the whole SuFEx
Data visualization was done with seaborn
(https://seaborn.pydata.org, version 0.12.2). […]
compounds. (F) Analysis of the cytotoxicity of compounds with treatment‐centric features related to FL2‐ […]
Synthesis and in Vitro Evaluation of Diverse Heterocyclic Diphenolic Compounds as Inhibitors of DYRK1A.
(7) Zhang, J.‐H.; Chung, T. D. Y.; Oldenburg, K. R. A Simple Statistical Parameter for Use in Evaluation and Validation of High Throughput Screening Assays. SLAS Discov.

The target in another data set is T2, recombinant DDB1-CRBN (Homo sapiens, UniProt Q96SW2).
T2 construct: His; made in house; host or cells: High Five insect cells (baculovirus made and propagated in SF9 cells)
In words: Fluorescence polarization-based competition assay for CRBN binding. The conditions noted are these: 200 nM CRBN-DDB1, 20 nM pomalidomide-fluorescein tracer 16, triplicates; read-out: FP_CRBN_binding: CRBN binding affinity, EC50.

For the next data set, the target named is T3, IKZF1 (Homo sapiens, UniProt Q13422).
T3 construct: endogenous in cells; host or cells: MV4.11
Nature of the data set: Western blot analysis of IKZF1 degradation in MV4.11 cells. It counts as cell-based. The settings on record: 16 h.

A value given as a limit tells only on which side of the number the result lay.

For `CN(Cc1ncc(C2CC2)o1)S(=O)(=O)Oc1ccc(Nc2ccc3c(c2)C(=O)N(C2CCC(=O)NC2=O)C3=O)cc1` (centres unmarked) [FL2-14], the “treatment time at which GSPT2 degradation is apparent” value at GSPT2 (10 µM, time-course in RKO and HEK293T cells) was 5 h. In addition, the “GSPT2 degradation in RKO CRBN KO cells” value on GSPT2 (RKO CRBN KO, 10 μM, 16 h) is reported as “completely abrogated”. In addition, at GSPT2 (RKO WT, 10 μM, 16 h), the “degradation of GSPT2 versus GSPT1 (Western blot)” value was “preferentially degraded GSPT2 over GSPT1”. For the same molecule, the “concentration range of GSPT2 degradation (dose-response)” value on GSPT2 (RKO, 0 to 10 μM, 16 h) is “submicromolar range”. In addition, the EC50 at 72 h in data set [1] (HEK293T cells) and in data set [1] (RKO WT cells) was > 10 µM each time. Also, at recombinant DDB1-CRBN, the concentration giving a half-maximal response (EC50) worked out at 0.991 µM. Also, on IKZF1, the IKZF1 degradation result is listed as “did not induce degradation of IKZF1”.
